Laboratory results from ChEMBL document CHEMBL1949597, “Novel vitamin D receptor ligands bearing a spherical hydrophobic core structure--comparison of bicyclic hydrocarbon derivatives with boron cluster derivatives” (Bioorg Med Chem Lett, 2012).
Activity calls are given as the source filed them. The rule behind the calls is not given here.

Target: T1, Vitamin D3 receptor (Homo sapiens) (UniProt P11473)
T1 sequence (whole entry): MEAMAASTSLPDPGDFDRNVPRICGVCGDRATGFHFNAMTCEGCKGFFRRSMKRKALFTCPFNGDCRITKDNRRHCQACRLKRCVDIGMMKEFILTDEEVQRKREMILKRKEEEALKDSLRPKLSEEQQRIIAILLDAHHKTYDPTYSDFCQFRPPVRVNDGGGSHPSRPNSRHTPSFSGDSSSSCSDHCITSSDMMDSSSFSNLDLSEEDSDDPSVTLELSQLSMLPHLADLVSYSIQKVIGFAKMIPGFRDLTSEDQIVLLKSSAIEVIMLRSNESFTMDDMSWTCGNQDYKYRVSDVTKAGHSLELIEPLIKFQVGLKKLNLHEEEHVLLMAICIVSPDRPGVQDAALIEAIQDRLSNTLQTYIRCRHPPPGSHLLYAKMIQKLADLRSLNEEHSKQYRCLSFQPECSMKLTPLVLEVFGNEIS
Test: Induction of vitamin D receptor-mediated differentiation of human HL60 cells at 10^-6 M by NBT reduction method
Format: cell-based
Conditions: HL-60

CCC(O)(CC)CCCCC12CCC(COCCC(O)CCO)(CC1)CC2 (stereo unspecified)
Activity: Active
